We go through three compounds from patent publication US5324648A, “Substituted isocoumarins as serine protease inhibitors and anti-inflammatory agents” (Georgia Tech Research Corporation, priority 1992, dated 1994).

Read-outs that look alike come from different tables or passages of the source.

For data set [1], the system named is rat granule chymase. In words: Reactivation of inhibited rat granule chymase. It counts as biochemical. As to conditions: [I] 39 μM; +NH2OH 0.36M. As to the method:
(§1) ^a Inhibition was performed at 0.1M Hepes, 0.5M NaCl, pH 7.5 buffer,
(§2) 10% Me2 SO and 25° C. Reactivation was carried out in the
presence of 0.36M of NH2 OH, and occurred immediately after the […]

The target in data set [2] is T1, chymotrypsin (Bos taurus, UniProt P00766). The data set can be described thus: Inactivation of chymotrypsin. As to conditions: pH 7.5, 25° C, read-out: kobs/[I]. It counts as biochemical, bovine.
The target of data set [3] is T1, chymotrypsin. In words: Reactivation of inhibited chymotrypsin. Type of data set: biochemical, bovine. As for the experimental part: as §1, §2
presence of 0.36M of NH2 OH, and occurred immediately after the
^b Enzyme activity was measured after two days.

The target in another data set is T2, cathepsin G (Homo sapiens, UniProt P08311).
T2 construct: from tissue; host or cells: human leukocytes
T2 sequence (P08311 21-255): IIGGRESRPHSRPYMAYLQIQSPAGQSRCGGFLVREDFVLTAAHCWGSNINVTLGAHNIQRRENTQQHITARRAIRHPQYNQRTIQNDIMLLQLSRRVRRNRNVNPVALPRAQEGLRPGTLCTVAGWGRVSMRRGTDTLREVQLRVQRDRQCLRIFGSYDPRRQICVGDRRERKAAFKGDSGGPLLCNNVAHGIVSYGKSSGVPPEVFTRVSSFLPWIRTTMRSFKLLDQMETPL
In words: Inactivation of cathepsin G. It counts as biochemical.

In another data set the target is rat granule tryptase. The data set can be described thus: Inhibition of rat granule tryptase. It counts as biochemical. As to conditions: Table XIV. As for the experimental part:
(§3) ^a Inhibition was measured at 0.1M Hepes, 0.5M NaCl, pH 7.5 buffer,
(§4) 10% Me2 SO and 25° C. Suc--Phe--Leu--PheSBzl (0.14 mM) and
(§5) ZGly--ArgSBzl (0.06 mM) were used to measure chymase and tryptase activit

The test system of data set [4] is rat granule chymase. In words: Inhibition of rat granule chymase. Type of data set: biochemical. As to conditions: Table XIV, not time dependent. As for the experimental part:
as §3, §4, §5

Another data set concerns the target T3, bovine trypsin (Bos taurus, UniProt P00760).
T3 sequence (P00760 24-246): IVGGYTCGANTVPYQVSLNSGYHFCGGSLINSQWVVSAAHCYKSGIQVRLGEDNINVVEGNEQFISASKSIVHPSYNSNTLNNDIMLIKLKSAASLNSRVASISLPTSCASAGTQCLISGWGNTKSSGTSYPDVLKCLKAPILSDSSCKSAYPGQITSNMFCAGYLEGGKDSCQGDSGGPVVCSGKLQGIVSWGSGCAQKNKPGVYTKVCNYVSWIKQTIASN
The data set can be described thus: Inactivation rate of bovine trypsin. The note with it: Table VIII; pH 7.5, 25° C; [I] 1.1-4.6 μM; read-out: kobs/[I]. It counts as biochemical. The essentials: (§6)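 Residual activity was followed on peptide thioester (with 4,4'-dithiodipyridine, 324 nm) or 4-nitroanilide (410 nm) substrates after enzyme (0.01-2.3 μM) was incubated with isocoumarin at 25° C in 0.1M Hepes, 0.01M CaCl2, pH 7.5 containing 8-12% Me2SO. First-order kobs came from ln(vt/vo) versus time plots.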

Another data set concerns the target human lung tryptase. The data set can be described thus: Inactivation rate of human lung tryptase. Type of data set: biochemical. The note with it: Table IX; pH 7.5, 25° C; [I] 0.42-0.47 μM. The essentials: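 Incubation method in 0.1M Hepes, 0.5M NaCl, pH 7.5, 8% Me2SO, 25° C; inhibitor added to enzyme, aliquots withdrawn over time for residual activity. Substrate ZArg-SBzl (0.07 mM) with 4,4'-dithiodipyridine (0.33 mM). kobs from ln(vt/vo) vs time plots.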

Data set [5] has as its target T4, human leukocyte elastase (HLE) (Homo sapiens, UniProt P08246).
T4 construct: from tissue; host or cells: human leukocytes (from the name)
T4 sequence (P08246 30-267): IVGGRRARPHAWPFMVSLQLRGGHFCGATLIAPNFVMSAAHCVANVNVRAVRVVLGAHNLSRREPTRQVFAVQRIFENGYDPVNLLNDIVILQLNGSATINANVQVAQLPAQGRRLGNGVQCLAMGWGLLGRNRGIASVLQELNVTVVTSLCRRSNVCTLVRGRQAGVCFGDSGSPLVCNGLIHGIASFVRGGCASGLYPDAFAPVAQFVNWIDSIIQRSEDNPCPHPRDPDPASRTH
The data set can be described thus: Inactivation of human leukocyte elastase (HLE). Type of data set: biochemical. As to conditions: Table X; pH 7.5, 25° C; [I] 2.1-42 μM; read-out: kobs/[I].

The target of data set [6] is T5, porcine pancreatic elastase (PPE) (Sus scrofa, UniProt P00772).
T5 construct: from tissue; host or cells: porcine pancreas (from the name)
In words: Inactivation of porcine pancreatic elastase (PPE). Type of data set: biochemical. As to conditions: Table X; after 20 min incubation.

The target of the next data set is T6, human plasmin (Homo sapiens, UniProt P00747).
T6 construct: human plasmin; from tissue; host or cells: human plasma
In words: Inactivation rate of human plasmin. It counts as biochemical. As to conditions: Table IX; 0.01M CaCl2, pH 7.5, 25° C; [I] 8.3-41 μM; read-out: kobs/[I].

The target of the next data set is T7, human thrombin (Homo sapiens, UniProt P00734).
T7 construct: human thrombin
In words: Inactivation rate of human thrombin. As to conditions: Table VIII; pH 7.5, 25° C; [I] 1.2-54 μM; read-out: kobs/[I]. Type of data set: biochemical. The essentials:
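Incubation method: enzyme (0.01-2.3 μM) mixed with inhibitor in 0.1M Hepes, 0.01M CaCl2, pH 7.5, 8% Me2SO, 25° C; residual activity sampled over time with peptide thioester or 4-nitroanilide substrates. kobs from ln(vt/vo) vs time plots.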

The target of a further data set is T8, rat skin tryptase (Rattus norvegicus, UniProt P27435).
T8 construct: from tissue; host or cells: rat skin
The data set can be described thus: Inactivation rate of rat skin tryptase. It counts as biochemical. As to conditions: pH 7.5, Table IX; pH 7.5, 25° C; [I] 0.42-0.51 μM; read-out: kobs/[I]. The essentials: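 Rat skin tryptase incubated with isocoumarin inhibitor in 25 mM phosphate, 0.5 M NaCl, 1 mM EDTA, pH 7.5, 8-9% Me2SO, 25 °C; aliquots withdrawn over time for residual activity on ZArg-SBzl (0.07 mM) with 4,4'-dithiodipyridine (0.33 mM). First-order kobs from ln(vt/vo) versus time.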

Another data set concerns human skin tryptase. The data set can be described thus: Inhibition of human skin tryptase. The note with it: Table IX; not time dependent; at 0.34-5.0 μM. It counts as biochemical. As for the experimental part: Inactivation rates of serine proteases by substituted isocoumarins were measured by the incubation method. An aliquot of inhibitor (25 or 50 μl) in Me2 SO was added to a buffered enzyme solution (0.01-2.3 μM) to initiate the inactivation. Aliquots (50 μl) were withdrawn at various intervals and the residual enzymatic activity was measured. Me2 SO concentration in the reaction mixture was 8-12% (v/v). 0.1 Hepes, 0.01M CaCl2, pH 7.5 buffer was utilized for trypsin and coagulation enzymes. 0.1M Hepes, 0.5M NaCl, pH 7.5 was utilized for other serine proteases. The inhibitor concentrations are shown in all the tables. Peptide thioesters or peptide nitroanilides with appropriate sequence were used as substrates for various serine proteases. All peptide thioester hydrolysis rates were measured with assay mixtures containing 4,4'-dithiodipyridine (ε324 =19800M^-1 cm^-1; Grasetti & Murray, Arch. Biochem. Biophys. 119, pp 41-49 (1967)). Peptide 4-nitroanilide nitroanilide hydrolysis was measured at 410 nm (ε410 =8800M^-1 cm^-1; Erlanger et al., Arch. Biochem. Biophys. 95, pp 271-278 (1961)). First order inactivation rate constant (kobs) were obtained from plots of ln (vt /vo) vs time, and the correlation coefficients were greater than 0.98.
^a Inhibition rates were measured in 0.1M Hepes, 0.01M CaCl2, pH
7.5 buffer for human plasmin; 25 mM Phosphate, 0.5M NaCl, 1 mM EDTA, pH
7.5 buffer for rat skin tryptase and 0.1M Hepes, 0.5M NaCl, pH 7.5 for
human lung tryptase, human skin tryptase and rt-PA. All enzymes were
assayed with ZArg-SBzl (0.07 mM) in the presence of 4,4dithiodipyridine
(0.33 mM). Reaction mixtures contained 8% Me2 SO and assays were […]

Data set [7] has as its target recombinant human tissue plasminogen activator (Homo sapiens, UniProt P00750). The data set can be described thus: Inactivation rate of recombinant human tissue plasminogen activator. As to conditions: pH 7.5, Table IX; pH 7.5, 25° C; [I] 3.5-5.0 μM; read-out: kobs/[I]. It counts as biochemical. The essentials:
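Incubation method: enzyme mixed with inhibitor in Me2SO (8–12% v/v) in 0.1M Hepes, 0.5M NaCl, pH 7.5; aliquots withdrawn over time for residual activity with ZArg-SBzl (0.07 mM) plus 4,4'-dithiodipyridine (0.33 mM). kobs taken from ln(vt/vo) versus time plots.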

A further data set has as its target T9, bovine thrombin (Bos taurus, UniProt P00735).
T9 construct: bovine thrombin
The data set can be described thus: Inactivation rate of bovine thrombin. As to conditions: Table VIII; pH 7.5, 25° C; [I] 1.2-54 μM; read-out: kobs/[I]. It counts as biochemical. The essentials:
as §6

The nature of data set [8]: Spontaneous hydrolysis in Hepes buffer. It counts as physicochemical. As to conditions: 0.1 Hepes, 0.5M NaCl, pH 7.5, 9% Me2SO, 25° C. As for the experimental part: ^a Conditions were 0.1 Hepes, 0.5M NaCl, pH 7.5 and 9% Me2 SO at
25° C. Spontaneous hydrolysis rates were measured
spectrophotometrically by monitoring the decrease in absorbance due to th
isocoumarin ring system (wavelength 335-380 nm) using the firstorder rate

Setting [9] is: [I] 39 μM, in buffer, after two days.
The mark [10] stands for this setting: [I] 78 μM, in buffer, after two days.

T6 sequence (P00747 581-810 limits assumed): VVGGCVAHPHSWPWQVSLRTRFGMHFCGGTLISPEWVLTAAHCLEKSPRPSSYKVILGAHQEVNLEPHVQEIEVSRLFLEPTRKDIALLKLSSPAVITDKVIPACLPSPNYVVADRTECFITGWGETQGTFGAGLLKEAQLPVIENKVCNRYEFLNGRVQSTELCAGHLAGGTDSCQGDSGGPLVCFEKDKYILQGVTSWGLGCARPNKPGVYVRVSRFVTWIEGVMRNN
T6 sequence (P00747 97-580 partner limits assumed): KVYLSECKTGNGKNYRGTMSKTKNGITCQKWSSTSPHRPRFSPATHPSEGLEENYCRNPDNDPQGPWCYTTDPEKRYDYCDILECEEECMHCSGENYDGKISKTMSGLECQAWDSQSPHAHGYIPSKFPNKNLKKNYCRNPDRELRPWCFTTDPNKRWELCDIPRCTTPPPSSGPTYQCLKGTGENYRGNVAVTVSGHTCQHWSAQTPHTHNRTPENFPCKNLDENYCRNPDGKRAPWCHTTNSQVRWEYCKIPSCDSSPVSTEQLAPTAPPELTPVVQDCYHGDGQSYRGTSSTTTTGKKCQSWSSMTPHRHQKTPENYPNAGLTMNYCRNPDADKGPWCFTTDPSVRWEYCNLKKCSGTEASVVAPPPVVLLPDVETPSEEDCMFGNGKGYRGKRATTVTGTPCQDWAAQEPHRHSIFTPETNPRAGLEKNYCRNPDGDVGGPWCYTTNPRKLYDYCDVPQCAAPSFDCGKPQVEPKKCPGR
T5 sequence (P00772 27-266): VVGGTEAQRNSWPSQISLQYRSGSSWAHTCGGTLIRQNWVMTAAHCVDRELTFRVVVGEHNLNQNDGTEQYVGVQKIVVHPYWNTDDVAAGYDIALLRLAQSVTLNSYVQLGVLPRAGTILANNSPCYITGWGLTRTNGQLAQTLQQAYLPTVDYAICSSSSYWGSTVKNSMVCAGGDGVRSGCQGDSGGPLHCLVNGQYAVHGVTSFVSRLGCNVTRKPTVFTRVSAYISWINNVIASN
recombinant human tissue plasminogen activator, sequence (P00750 36-562): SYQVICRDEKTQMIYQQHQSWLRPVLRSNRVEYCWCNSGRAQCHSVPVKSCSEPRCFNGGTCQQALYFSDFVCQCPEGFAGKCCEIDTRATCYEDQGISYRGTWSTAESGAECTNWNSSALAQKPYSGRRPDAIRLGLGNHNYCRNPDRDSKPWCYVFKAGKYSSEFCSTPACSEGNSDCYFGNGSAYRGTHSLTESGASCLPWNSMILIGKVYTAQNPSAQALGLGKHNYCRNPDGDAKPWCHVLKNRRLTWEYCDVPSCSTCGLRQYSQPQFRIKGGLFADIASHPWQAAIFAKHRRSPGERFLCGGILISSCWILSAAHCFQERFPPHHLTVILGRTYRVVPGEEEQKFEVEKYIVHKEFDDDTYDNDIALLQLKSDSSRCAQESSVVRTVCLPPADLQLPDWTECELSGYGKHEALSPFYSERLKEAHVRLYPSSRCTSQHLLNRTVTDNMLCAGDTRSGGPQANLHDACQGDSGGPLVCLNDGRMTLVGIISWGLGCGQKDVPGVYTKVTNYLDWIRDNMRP
T8 sequence (P27435 29-273): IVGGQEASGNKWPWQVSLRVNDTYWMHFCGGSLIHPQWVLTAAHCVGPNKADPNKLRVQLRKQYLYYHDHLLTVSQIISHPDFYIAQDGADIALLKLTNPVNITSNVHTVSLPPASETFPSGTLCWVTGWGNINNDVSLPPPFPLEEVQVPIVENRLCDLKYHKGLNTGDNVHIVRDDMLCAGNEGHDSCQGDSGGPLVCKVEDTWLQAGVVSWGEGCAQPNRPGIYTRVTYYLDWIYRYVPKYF
Experimental for cathepsin G: Inactivation rates of serine proteases by substituted isocoumarins were measured by the incubation method. An aliquot of inhibitor (25 or 50 μl) in Me2 SO was added to a buffered enzyme solution (0.01-2.3 μM) to initiate the inactivation. Aliquots (50 μl) were withdrawn at various intervals and the residual enzymatic activity was measured. Me2 SO concentration in the reaction mixture was 8-12% (v/v). 0.1 Hepes, 0.01M CaCl2, pH 7.5 buffer was utilized for trypsin and coagulation enzymes. 0.1M Hepes, 0.5M NaCl, pH 7.5 was utilized for other serine proteases. […] Peptide thioesters or peptide nitroanilides with appropriate sequence were used as substrates for various serine proteases. All peptide thioester hydrolysis rates were measured with assay mixtures containing 4,4'-dithiodipyridine (ε324 =19800M^-1 cm^-1 ; Grasetti & Murray, Arch. Biochem. Biophys. 119, pp 41-49 (1967)). Peptide 4-nitroanilide nitroanilide hydrolysis was measured at 410 nm (ε410 =8800M^-1 cm^-1 ; Erlanger et al., Arch. Biochem. Biophys. 95, pp 271-278 (1961)). First order inactivation rate constant (kobs) were obtained from plots of ln (vt /vo) vs time, and the correlation coefficients were greater than 0.98.
^a Inactivation rates were measured at 0.1M Hepes, 0.5 NaCl, pH 7.5,
8-12% Me2 SO and 25° C. by incubation method.
and assayed for remaining activity.
^a Inhibition rates were measured in 0.1M Hepes, 0.05M NaCl, pH 7.5
buffer, 8-9% Me2 SO and at 25° C.
Me2 SO, pH 7,5 and at 25° C.
^a Inhibition was measured in 0.1M Hepes, 0.5M NaCl, pH 7.5 buffer,
5-10% Me2 SO and at 25° C. Suc--Val--Pro--Phe--NA (0.48 mM)
was used as the substrate for chymotrypsin and cat G.

For orientation: inhibition means the percentage by which the read-out fell short of the control. With `O=C(CCCC[C@@H]1SC[C@@H]2NC(=O)N[C@@H]21)NCCCCCC(=O)Nc1ccc2c(Cl)c(OCCc3ccccc3)oc(=O)c2c1` [7-(6-biotinylaminocaproyl)amino-4-chloro-3-(2-phenylethoxy)isocoumarin], the “% of Enzyme Activity Reactivated” value is 30-50% in the data set on rat granule chymase [1]; 50% at chymotrypsin [3] ([I] 39 μM, +NH2OH 0.36M); 6% at chymotrypsin [3] (setting [9]); 40% on chymotrypsin [3] ([I] 78 μM, +NH2OH 0.36M); 0% at chymotrypsin [3] (setting [10]). In addition, on chymotrypsin [2] (Table XIII, [I] 20-400 μM), the kinact/KI came out at 1080 M⁻¹ s⁻¹. For the same compound, the inhibition on cathepsin G (Table XIII, [I] 75-400 μM) amounted to 13%. Further, at rat granule tryptase ([I] 0.078 mM), the “kobs/[I]” value lay in the range of 6 to 12 M⁻¹ s⁻¹. The “% of inhibition” value in the data set on rat granule chymase [4] ([I] 0.078 mM) is 30-50%.

`O=C(CCCC[C@@H]1SC[C@@H]2NC(=O)N[C@@H]21)Nc1ccc2c(Cl)c(OCCc3ccccc3)oc(=O)c2c1` [7-biotinylamino-4-chloro-3-(2-phenylethoxy)isocoumarin]: the “% of Enzyme Activity Reactivated” value was 100% in the data set on rat granule chymase [1]; 85% on chymotrypsin [3] ([I] 39 μM, +NH2OH 0.36M); 51% at chymotrypsin [3] (setting [9]); 79% on chymotrypsin [3] ([I] 78 μM, +NH2OH 0.36M); 7% at chymotrypsin [3] (setting [10]). Also, at rat granule tryptase ([I] 0.2 mM), the “kobs/[I]” value was in the range of 2 to 3 M⁻¹ s⁻¹. For the same compound, the “% of inhibition” value in the data set on rat granule chymase [4] ([I] 0.2 mM) is listed as 10-20%.

As for `N=C(N)SCCCOc1oc(=O)c2cc(NC(=O)NCc3ccccc3)ccc2c1Cl` [PhCH2 NHCONH-CiTPrOIC, 7-(benzylcarbamoylamino)-4-chloro-3-(3-isothiureidopropoxy)isocoumarin], the kinact/KI on bovine trypsin stood at 51000 M⁻¹ s⁻¹; in data set [5], 250 M⁻¹ s⁻¹; on chymotrypsin [2] (Table X, [I] 0.9-43 μM) it was 13400 M⁻¹ s⁻¹; on human plasmin, 5120 M⁻¹ s⁻¹; on human thrombin it was 700 M⁻¹ s⁻¹; on rat skin tryptase, 270000 M⁻¹ s⁻¹. Besides, the kinact/KI on cathepsin G (Table X, pH 7.5, 25° C, [I] 33-46 μM, read-out: kobs/[I]) worked out at 50 M⁻¹ s⁻¹; in data set [7], 18000 M⁻¹ s⁻¹; on bovine thrombin it was 420 M⁻¹ s⁻¹. The “kobs/[I]” value at human lung tryptase is listed as 190,000 M^-1 s^-1. The percentage of inhibition was 9% in [6] and 68% in the data set with human skin tryptase. In addition, the “t1/2 for spontaneous hydrolysis” value in data set [8] came to 2.47 h.
